Laboratory results: patent publication US8906925B2, “Pyrido[4,3-B]indoles containing rigid moieties” (Medivation Technologies, Inc., priority 2008, dated 2014)
Read-outs that look alike come from different tables or passages of the source.

How the values were obtained:
histamine receptor H1 = histamine receptor H1 (Homo sapiens, UniProt P35367); assay: Histamine H1 radioligand binding ([3H]Pyrilamine); conditions: read-out: Histamine Binding (1 μM) H1, percent inhibition of specific binding, 1 μM
Experimental: To evaluate in radioligand binding assays the activity of compounds of the invention, human recombinant histamine H1 receptor expressed in Chinese hamster ovary (CHO) cells (De Backer, M. D. et al., Biochem. Biophys. Res. Comm. 197(3):1601, 1993) in a modified Tris-HCl buffer (50 mM Tris-HCl, pH 7.4, 2 mM MgCl2, 100 mM NaCl, 250 mM Sucrose) was used. Compounds of the invention were incubated with 1.2 nM [^3H]Pyrilamine for 180 min. at 25° C. Non-specific binding was estimated in the presence of 1 μM pyrilamine. Receptor proteins were filtered and washed, the filters were then counted to determine [^3H]Pyrilamine specifically bound. Compounds were screened at 1 μM or lower, using 1% DMSO as vehicle. Biochemical assay results are presented as the percent inhibition of specific binding in Table 8.

[1] = target: human dopamine D2L receptor (Homo sapiens, UniProt P14416); assay: Dopamine D2L radioligand binding ([3H]Spiperone); conditions: compound at 1 μM
Text: Non-specific binding was estimated in the presence of […] Haloperidol. Receptor proteins were filtered and washed, the filters were then counted to determine [^3H]Spiperone specifically bound. […] Biochemical assay results are presented as the percent inhibition of specific binding in Table 9.

[2] = percent inhibition of specific binding, read-out: Inhibition of ligand binding, Dopamine D2L
[3] = […] [3H]Spiperone, read-out: Inhibition of ligand binding, Dopamine D2L (percent inhibition of specific binding)

human dopamine D2L receptor, sequence (P14416 whole entry): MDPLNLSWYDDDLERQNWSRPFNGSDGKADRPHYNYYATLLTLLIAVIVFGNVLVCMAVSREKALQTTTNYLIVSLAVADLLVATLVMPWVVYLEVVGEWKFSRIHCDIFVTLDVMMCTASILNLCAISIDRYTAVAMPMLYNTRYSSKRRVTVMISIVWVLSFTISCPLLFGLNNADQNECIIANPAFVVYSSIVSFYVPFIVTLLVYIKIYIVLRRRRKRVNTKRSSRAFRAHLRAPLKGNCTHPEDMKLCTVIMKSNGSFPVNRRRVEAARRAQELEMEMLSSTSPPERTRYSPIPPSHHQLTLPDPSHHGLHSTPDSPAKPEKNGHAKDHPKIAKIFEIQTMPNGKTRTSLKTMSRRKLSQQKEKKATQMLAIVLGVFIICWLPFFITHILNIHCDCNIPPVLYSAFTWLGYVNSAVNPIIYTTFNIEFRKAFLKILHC
histamine receptor H1, sequence (P35367 whole entry): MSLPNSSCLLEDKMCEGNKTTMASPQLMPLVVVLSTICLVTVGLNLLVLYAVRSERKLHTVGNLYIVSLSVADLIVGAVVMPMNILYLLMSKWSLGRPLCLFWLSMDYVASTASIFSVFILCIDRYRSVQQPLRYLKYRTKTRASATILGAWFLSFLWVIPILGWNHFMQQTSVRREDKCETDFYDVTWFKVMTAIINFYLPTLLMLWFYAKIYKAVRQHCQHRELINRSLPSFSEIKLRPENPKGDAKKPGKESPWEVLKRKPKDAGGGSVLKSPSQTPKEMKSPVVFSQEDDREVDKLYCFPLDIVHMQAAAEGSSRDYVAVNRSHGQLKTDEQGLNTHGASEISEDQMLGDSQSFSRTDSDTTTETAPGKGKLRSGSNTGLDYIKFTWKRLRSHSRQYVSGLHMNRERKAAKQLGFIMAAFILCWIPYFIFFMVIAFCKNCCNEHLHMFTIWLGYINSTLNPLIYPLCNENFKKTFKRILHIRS

| inhibition at 1 µM (histamine receptor H1) | inhibition at 1 µM [1, 2] | inhibition at 1 µM [1, 3] | SMILES |
| --- | --- | --- | --- |
| 23% | 66% | – | CC/C(=C\n1c2c(c3cc(C)ccc31)CN(C)CC2)c1ccncc1 [Compound 283, (E)-2,8-dimethyl-5-(2-(pyridin-4-yl)but-1-enyl)-2,3,4,5-tetrahydro-1H-pyrido[4,3-b]indole] |
| 40% | 84% | – | CC/C(=C\n1c2c(c3cc(Cl)ccc31)CN(C)CC2)c1ccncc1 [Compound 284, (E)-8-chloro-2-methyl-5-(2-(pyridin-4-yl)but-1-enyl)-2,3,4,5-tetrahydro-1H-pyrido[4,3-b]indole] |
| 21% | 53% | – | C/C(=C\n1c2c(c3cc(C)ccc31)C(C)N(C)C(C)C2)c1ccncc1 (stereo not shown) [Compound 285, (E)-1,2,3,8-tetramethyl-5-(2-(pyridin-4-yl)prop-1-enyl)-2,3,4,5-tetrahydro-1H-pyrido[4,3-b]indole] |
| 33% | 72% | – | C/C(=C\n1c2c(c3cc(C)ccc31)CN(C)CC2)c1cnccn1 [Compound 287, (E)-2,8-dimethyl-5-(2-(pyrazin-2-yl)prop-1-enyl)-2,3,4,5-tetrahydro-1H-pyrido[4,3-b]indole] |
| 25% | 92% | – | C/C(=C\n1c2c(c3cc(C)ccc31)CN(CCCO)CC2)c1ccncc1 [Compound 288, (E)-3-(8-methyl-5-(2-(pyridin-4-yl)prop-1-enyl)-3,4-dihydro-1H-pyrido[4,3-b]indol-2(5H)-yl)propan-1-ol] |
| 34% | 90% | – | C/C(=C\n1c2c(c3cc(Cl)ccc31)CN(C)CC2)c1ccncn1 [Compound 289, (E)-8-chloro-2-methyl-5-(2-(pyrimidin-4-yl)prop-1-enyl)-2,3,4,5-tetrahydro-1H-pyrido[4,3-b]indole] |
| -4% | 0% | – | C/C(=C\n1c2c(c3cc(C)ccc31)CN(CC(F)(F)F)CC2)c1ccncc1 [Compound 291, (E)-8-methyl-5-(2-(pyridin-4-yl)prop-1-enyl)-2-(2,2,2-trifluoroethyl)-2,3,4,5-tetrahydro-1H-pyrido[4,3-b]indole] |
| 11% | 71% | – | C/C(=C\n1c2c(c3cc(C)ccc31)CN(C1CC1)CC2)c1ccncc1 [Compound 292, (E)-2-cyclopropyl-8-methyl-5-(2-(pyridin-4-v)prop-1-enyl)-2,3,4,5-tetrahydro-H-pyrido[4,3-b]indole] |
| 9% | 31% | – | C/C(=C\n1c2c(c3cc(C)ccc31)CN(C)CC2)c1cncnc1 [Compound 293, (E)-2,8-dimethyl-5-(2-(pyrimidin-5-yl)prop-1-enyl)-2,3,4,5-tetrahydro-1H-pyrido[4,3-b]indole] |
| 83% | 83% | – | C/C(=C\n1c2c(c3cc(C)ccc31)CN(C)CC2)c1cccs1 [Compound 294, (E)-2,8-dimethyl-5-(2-(thiophen-2-yl)prop-1-enyl)-2,3,4,5-tetrahydro-1H-pyrido[4,3-b]indole] |
| 65% | 61% | – | C/C(=C\n1c2c(c3cc(C)ccc31)CN(C)CC2)C1CCCCC1 [Compound 320, (E)-5-(2-cyclohexylprop-1-enyl)-2,8-dimethyl-2,3,4,5-tetrahydro-1H-pyrido[4,3-b]indole] |
| 23% | 79% | – | C/C(=C\n1c2c(c3cc(C)ccc31)CN(CCO)CC2)c1ccncc1 [Compound 332, (E)-2-(8-methyl-5-(2-(pyridin-4-yl)prop-1-enyl)-3,4-dihydro-1H-pyrido[4,3-b]indol-2(5H)-yl)ethanol] |
| 29% | 51% | – | C/C(=C\n1c2c(c3cc(Cl)ccc31)CN(C)CC2)c1cnccn1 [Compound 333, (E)-8-chloro-2-methyl-5-(2-(pyrazin-2-yl)prop-1-enyl)-2,3,4,5-tetrahydro-1H-pyrido[4,3-b]indole] |
| 18% | 90% | – | C/C(=C\n1c2c(c3ccc(C(C)C)cc31)CN(C)CC2)c1ccncc1 [Compound 334, (E)-7-isopropyl-2-methyl-5-(2-(pyridin-4-yl)prop-1-enyl)-2,3,4,5-tetrahydro-1H-pyrido[4,3-b]indole] |
| 83% | 97% | – | C/C(=C\n1c2c(c3cc(Cl)ccc31)CN(C)CC2)c1cccs1 [Compound 338, (E)-8-chloro-2-methyl-5-(2-(thiophen-2-yl)prop-1-enyl)-2,3,4,5-tetrahydro-1H-pyrido[4,3-b]indole] |
| 11% | 2% | – | Cc1ccc2c(c1)c1c(n2CC(C)(O)c2ccncc2)CCN(CC(F)(F)F)C1 (stereo not shown) [Compound 341, 1-(8-methyl-2-(2,2,2-trifluoroethyl)-3,4-dihydro-1H-pyrido[4,3-b]indol-5(2H)-yl)-2-(pyridin-4-yl)propan-2-ol] |
| 48% | 11% | – | Cc1ccc2c(c1)c1c(n2CC(C)(O)c2ccncc2)CCN(C2CC2)C1 (stereo not shown) [Compound 342, 1-(2-cyclopropyl-8-methyl-3,4-dihydro-1H-pyrido[4,3-b]indol-5(2H)-yl)-2-(pyridin-4-yl)propan-2-ol] |
| 22% | 9% | – | COc1cccc2c3c(n(CC(C)(O)c4ccncc4)c12)CCN(C)C3 (stereo not shown) [Compound 343, 1-(6-methoxy-2-methyl-3,4-dihydro-1H-pyrido[4,3-b]indol-5(2H)-yl)-2-(pyridin-4-yl)propan-2-ol] |
| 7% | 10% | – | CC(C)c1ccc2c3c(n(CC(C)(O)c4ccncc4)c2c1)CCN(C)C3 (stereo not shown) [Compound 344, 1-(7-isopropyl-2-methyl-3,4-dihydro-1H-pyrido[4,3-b]indol-5(2H)-yl)-2-(pyridin-4-yl)propan-2-ol] |
| 56% | 15% | – | Cc1ccc2c(c1)c1c(n2CC(C)(O)c2ccncc2)CC(C)N(C)C1 (stereo not shown) [Compound 345, 2-(pyridin-4-yl)-1-(2,3,8-trimethyl-3,4-dihydro-1H-pyrido[4,3-b]indol-5(2H)-yl)propan-2-ol] |
| 17% | 26% | – | C/C(=C\n1c2c(c3cc(Cl)ccc31)CN(C)CC2)c1cncnc1 [Compound 346, (E)-8-chloro-2-methyl-5-(2-(pyrimidin-5-yl)prop-1-enyl)-2,3,4,5-tetrahydro-1H-pyrido[4,3-b]indole] |
| 92% | – | 49% | C=C(Cn1c2c(c3cc(Cl)ccc31)CN(C)C(C)C2)c1ccncc1 (stereo not shown) [Compound 365, 8-chloro-2,3-dimethyl-5-(2-(pyridin-4-yl)allyl)-2,3,4,5-tetrahydro-1H-pyrido[4,3-b]indole] |
| 64% | – | 48% | C/C(=C\n1c2c(c3cc(Cl)ccc31)CN(C)CC2)C1CCCCC1 [Compound 367, (E)-8-chloro-5-(2-cyclohexylprop-1-enyl)-2-methyl-2,3,4,5-tetrahydro-1H-pyrido[4,3-b]indole] |
| 82% | – | 74% | C/C(=C/n1c2c(c3cc(C)ccc31)CN(C)CC2)C1CCCCC1 [Compound 368, (Z)-5-(2-cyclohexylprop-1-enyl)-2,8-dimethyl-2,3,4,5-tetrahydro-1H-pyrido[4,3-b]indole] |
| 29% | – | 64% | C/C(=C/n1c2c(c3cc(Cl)ccc31)CN(C)CC2)C1CCCCC1 [Compound 369, (Z)-8-chloro-5-(2-cyclohexylprop-1-enyl)-2-methyl-2,3,4,5-tetrahydro-1H-pyrido[4,3-b]indole] |
| 72% | – | 63% | C/C(=C\n1c2c(c3cc(Cl)ccc31)CN(C)CC2)c1nccs1 [Compound 370, (E)-2-(1-(8-chloro-2-methyl-3,4-dihydro-1H-pyrido[4,3-b]indol-5(2H)-yl)prop-1-en-2-yl)thiazole] |
| 19% | 23% | – | CN1CCc2c(c3cc(Cl)ccc3n2/C=C(/c2ccncc2)C(C)(C)C)C1 [Compound No. 286, (E)-8-chloro-5-(3,3-dimethyl-2-(pyridin-4-yl)but-1-enyl)-2-methyl-2,3,4,5-tetrahydro-1H-pyrido[4,3-b]indole] |
| 61% | – | 14% | CC(C)=C(Cn1c2c(c3cc(Cl)ccc31)CN(C)CC2)c1ccncc1 [Compound No. 357, 8-chloro-2-methyl-5-(3-methyl-2-(pyridin-4-yl)but-2-enyl)-2,3,4,5-tetrahydro-1H-pyrido[4,3-b]indole] |
| 47% | – | 14% | CC(C)=C(Cn1c2c(c3cc(C)ccc31)CN(C)CC2)c1ccncc1 [Compound No. 358, 2,8-dimethyl-5-(3-methyl-2-(pyridin-4-yl)but-2-enyl)-2,3,4,5-tetrahydro-1H-pyrido[4,3-b]indole] |
| 47% | – | 36% | C/C=C(\Cn1c2c(c3cc(Cl)ccc31)CN(C)CC2)c1ccncc1 [Compound No. 360, (Z)-8-chloro-2-methyl-5-(2-(pyridin-4-yl)but-2-enyl)-2,3,4,5-tetrahydro-1H-pyrido[4,3-b]indole] |

| SMILES | inhibition at 1 µM (histamine receptor H1) | inhibition at 1 µM [1, 2] | inhibition at 1 µM [1, 3] |
| --- | --- | --- | --- |
| C/C(=C\n1c2c(c3cc(C)ccc31)CN(C)CC2)c1cc(Cl)cc(Cl)c1 [compound 410, (E)-5-(2-(3,5-dichlorophenyl)prop-1-enyl)-2,8-dimethyl-2,3,4,5-tetrahydro-1H-pyrido[4,3-b]indole] | – | – | 47% |
